Data as given in patent US9102620B2, “Deuterated N-ethyl-N-phenyl-1,2-dihydro-4-hydroxy-5-chloro-1-methyl-2-oxoquinoline-3-carboxamide, salts and uses thereof” (TEVA PHARMACEUTICAL INDUSTRIES, LTD., priority 2010, dated 2015).
Like-named read-outs stand apart in the source and are kept apart here.

Columns and labels:
[1] = tested on: CYP1A2 mRNA; settings: human, 3 days; for mRNA Percent positive control, CYP1A2: hepatocytes
Method: (§1) After treatment, the cells were incubated in situ with marker substrates for the analysis of phenacetin O-dealkylation (marker for CYP1A2) and midazolam 1′-hydroxylation (marker for CYP3A4/5) by LC/MS/MS.
(§2) Approximately 24 hours after the last treatment, hepatocytes were lysed in TRIzol reagent after the in situ marker substrate incubations, and cell lysates were stored at −75±5° C. For human hepatocyte preparation H971, media from six wells per treatment group was aspirated, and approximately 132 μL TRIzol were added to each well. The cell lysates were mixed by repeated pipetting. Total RNA was isolated from the cell lysates using the TRIzol protocol (Invitrogen) and was purified using the RNeasy Mini Kit (Qiagen Inc.) according to SOP L6161.02. RNA quality and concentration were determined by measuring absorbance at 260 and 280 nm on a BioTek Synergy HT plate reader (BioTek Instruments, Inc.) with KC4 Signature software (version 3.4 Rev 21, BioTek Instruments, Inc.) according to SOP L6162.02. The analysis of RNA integrity was carried out with the RNA 6000 Nano Assay Kit on an Agilent 2100 Bioanalyzer (Agilent Technologies, Inc.) according to SOP L6162.02. Single-stranded cDNA was prepared from RNA with the RT Master Mix using the AB 7300 Real Time PCR system thermocycling program or AB 7900HT Fast Real Time PCR System thermocycling program (Applied Biosystems) according to SOP L6160.04. […] The RT Master Mix was added to each RNA sample to complete the components of the reaction. No template controls (NTCs) were included in the analysis. For the NTC reactions, RNase-free water was added in place of the RNA sample. The cDNA prepared samples were stored at −20±5° C. prior to analysis by qRT-PCR.
(§3) Quantitative RT-PCR was carried out according to SOP L6160.04 (XenoTech, LLC) and the Applied Biosystems protocol. Each PCR was performed in triplicate. A Primer Mix was prepared for each Gene Expression assay. A typical Primer Mix contained TaqMan Universal Master Mix (1×), Gene Expression Assay (1×, 900 nM forward and reverse primers) and RNase-free water. The Reaction Mix was prepared by adding the Primer Mix to cDNA. A percentage of samples (no less than 10%) included NACs. […] The relative quantity of the target cDNA compared with that of the control cDNA (GAPDH) was determined by the ΔΔCt method (Applied Biosystems User Bulletin #2). Relative quantification measures the change in mRNA expression in a test sample relative to that in a control sample (e.g., DMSO). This method assumes that the efficiency of the target amplification and the efficiency of the endogenous control amplification are approximately equal.
(§4) For qRT-PCR, data were processed using the Sequence Detection System (SDS) Software version 1.4, for Relative Quantification (Applied Biosystems). This software analyzes relative gene expression using the comparative Ct method (ΔΔCt), which relates the PCR signal of the target transcript to the PCR signal of the target in an untreated control. Both the treated sample and the untreated control signals are normalized to the endogenous control (GAPDH), for which expression is not affected by treatment and expression is constant throughout the tissue being tested. […] Calculations are as follows: ΔCt=Ct(target)−Ct(endogenous control) 1. ΔΔCt=ΔCt(treated sample)−ΔCt(untreated control) 2. Fold change in expression=2−ΔΔCt 3.
(§5) The level of mRNA expression relative to the positive control was calculated as follows: […]

[2] = tested on: CYP3A4 mRNA; settings: human, 3 days; for mRNA Percent positive control, CYP3A4: hepatocytes
Method: as §1, §2, §3, §4, §5

[3] = tested on: cultured human hepatocytes; format: in vitro ADME
Method: Just prior to treatment, on each day of treatment, and just prior to incubation of the marker substrates, spent culture medium (spent dosing media) were collected from the vehicle, laquinimod and Compound 2 treatment groups. Approximately 150 μL was collected from each of three wells, from each aforementioned treatment groups, and pooled for each sample to a final volume of approximately 450 μL. These spent media samples were analyzed for residual laquinimod, Compound 2 and the de-ethylated metabolite (DELAQ).
The concentrations of Compound 2, laquinimod and DELAQ were measured in spent media aliquots from media collected just prior to treatment, on each day of treatment, and just prior to incubation of the marker substrates. The concentration of formed DELAQ was approximately 2-fold higher in the laquinimod media compared to the Compound 2 media. At the 10 μM treatment concentrations of either Compound 2 or laquinimod, the ratio of Compound 2:DELAQ was on average, 40.9 while the ratio of laquinimod:DELAQ was on average, 15.7. This represents an approximately 3-fold increase in the formation of DELAQ from laquinimod compared to Compound 2 and is explained by the presence of deuterium on the ethyl moiety which results in slower N-deethylation.

SMILES | mRNA Fold increase, CYP1A2 ([1]; 0.01 μM) | mRNA Fold increase, CYP1A2 ([1]; 0.05 μM) | mRNA Fold increase, CYP1A2 ([1]; 0.1 μM) | mRNA Fold increase, CYP1A2 ([1]; 1 μM) | mRNA Fold increase, CYP1A2 ([1]; 10 μM) | mRNA Percent positive control, CYP1A2 ([1]; 0.01 μM) | mRNA Percent positive control, CYP1A2 ([1]; 0.05 μM) | mRNA Percent positive control, CYP1A2 ([1]; 0.1 μM) | mRNA Percent positive control, CYP1A2 ([1]; 1 μM) | mRNA Percent positive control, CYP1A2 ([1]; 10 μM) | mRNA Fold increase, CYP3A4 ([2]; 0.01 μM) | mRNA Fold increase, CYP3A4 ([2]; 0.05 μM) | mRNA Fold increase, CYP3A4 ([2]; 0.1 μM) | mRNA Fold increase, CYP3A4 ([2]; 1 μM) | mRNA Fold increase, CYP3A4 ([2]; 10 μM) | mRNA Percent positive control, CYP3A4 ([2]; 0.01 μM) | mRNA Percent positive control, CYP3A4 ([2]; 0.05 μM) | mRNA Percent positive control, CYP3A4 ([2]; 0.1 μM) | mRNA Percent positive control, CYP3A4 ([2]; 1 μM) | mRNA Percent positive control, CYP3A4 ([2]; 10 μM) | other results
[2H]C([2H])([2H])C([2H])([2H])N(C(=O)c1c(O)c2c(Cl)cccc2n(C)c1=O)c1ccccc1 [Compound 2, N-D5-ethyl-N-phenyl-1,2-dihydro-4-hydroxy-5-chloro-1-methyl-2-oxoquinoline-3-carboxamide] | 2.84 fold | 4.98 fold | 7.20 fold | 13.1 fold | 24.3 fold | 24.2% | 52.5% | 81.7% | 159% | 307% | 0.437 fold | 0.428 fold | 0.339 fold | 0.252 fold | 0.689 fold | −15.5% | −15.8% | −18.2% | −20.6% | −8.57% | difference in the Compound 2:DELAQ to laquinimod:DELAQ ratio ([3]; 10 μM): ~3 fold; ratio of test article:DELAQ in spent media, on average ([3]; 10 μM): 40.9
CCN(C(=O)c1c(O)c2c(Cl)cccc2n(C)c1=O)c1ccccc1 [Laquinimod, N-ethyl-N-phenyl-1,2-dihydro-4-hydroxy-5-chloro-1-methyl-2-oxoquinoline-3-carboxamide] | 4.22 fold | 7.90 fold | 9.50 fold | 16.8 fold | 20.5 fold | 42.5% | 91.1% | 112% | 209% | 257% | 0.621 fold | 0.347 fold | 0.427 fold | 0.286 fold | 0.636 fold | −10.4% | −18.0% | −15.8% | −19.7% | −10.0% | concentration of formed DELAQ in laquinimod media compared to Compound 2 media [3]: approximately 2 fold; increase in the formation of DELAQ from laquinimod compared to Compound 2 ([3]; 10 μM): approximately 3 fold; ratio of test article:DELAQ in spent media, on average ([3]; 10 μM): 15.7
